The record followed here is ChEMBL document CHEMBL1201862, “PubChem BioAssay data set” (2004).

Holding throughout (assay): NCI anticancer screen, dose series, 48 h
The subject of test [1] is OVCAR-4.
For test [2], the system named is OVCAR-5.
Test [3] concerns IGROV-1.
Test [4] relates to RXF 393.
Test [5] deals with EKVX.
For test [6], the system named is HCT-116.
Test [7] has as its system SF-539.
In test [8] the test system is SNB-19.
The subject of test [9] is SK-OV-3.
Test [10] has as its system SK-MEL-2.
Test [11] has as its system CAKI-1.
In test [12] the test system is SF-268.
The test system of test [13] is SK-MEL-5.
Test [14] has as its system UACC-62.
Test [15] has as its system KM12.
For test [16], the system named is RPMI-8226.
In test [17] the test system is SW-620.
The subject of test [18] is NCI-H460.
For test [19], the system named is OVCAR-3.
Test [20] has as its system UACC-257.

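Cells were grown in 96-well plates and exposed to each compound for 48 hours at five concentrations; endpoints were interpolated linearly between bracketing concentrations, or set to the highest concentration if not reached. Abbreviation: GI50, concentration required for 50% inhibition of growth.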 Activity calls are given as the source filed them. Cut-off read from the data, not from the text of the source: active = GI50 up to about 1.1 µM and inactive = higher. A value given as a limit tells only on which side of the number the result lay.

For `Clc1ccc(-c2nn3c(-c4ccncc4)nnc3s2)cc1`, the GI50 in [1] is > 100 µM (inactive); in [2], > 100 µM (inactive); in test [3] it was 64.4 µM (inactive); in test [4], 25.6 µM (inactive); in test [5], > 100 µM (inactive); in [6], > 100 µM (inactive). Besides, the GI50 in test [7] is > 100 µM (inactive); in test [8] it was 59.2 µM (inactive); in [9] it was 40.1 µM (inactive); in [10], > 100 µM (inactive); in [11], > 100 µM (inactive); in [12], 37.4 µM (inactive). Further, the GI50 in [13], in test [14], in test [15], in test [16], in test [17] and in [18] was > 100 µM (inactive) throughout. Besides, the GI50 in test [19] and in [20] was > 100 µM (inactive) in each case.
On to `COc1ccc(/C=N/C23CC4CC(CC(C4)C2)C3)cc1`, for which the GI50 in test [1], in test [2], in [3], in test [4], in [5] and in test [6] was > 100 µM (inactive) each time. In addition, the GI50 in test [7], in test [8], in [9], in test [10], in test [11] and in test [12] was > 100 µM (inactive) in each case. In addition, the GI50 in [13], in test [14], in test [15], in test [16], in test [17] and in test [18] was > 100 µM (inactive) each time. The GI50 in [19] and in test [20] was > 100 µM (inactive) throughout.
With `CN(C)C(=O)OC1=CC2CCC(C1)N2C` (stereo not given), the GI50 was > 100 µM (inactive) in test [1]; > 100 µM (inactive) in [2]; 71.4 µM (inactive) in test [3]; > 100 µM (inactive) in [4]; > 100 µM (inactive) in [5]; > 100 µM (inactive) in [6]. Further, the GI50 in test [7], in test [8], in test [9], in test [10], in test [11] and in test [12] was > 100 µM (inactive) throughout. Besides, the GI50 in test [13] is > 100 µM (inactive); in [14], > 100 µM (inactive); in [15], > 100 µM (inactive); in test [16], > 100 µM (inactive); in [17], > 100 µM (inactive); in [18], 32.4 µM (inactive). The GI50 in [19] and in [20] was > 100 µM (inactive) throughout.
On to `Cn1cc(-c2ccc3c4ccccc4n(C)c3c2)c2ccccc21`, for which the GI50 in [1], in [2], in test [3], in test [4], in test [5] and in test [6] was > 100 µM (inactive) in each case. In addition, the GI50 in test [7], in test [8], in test [9], in test [10], in test [11] and in test [12] was > 100 µM (inactive) throughout. Also, the GI50 in [13] was > 100 µM (inactive); in test [14] it was > 100 µM (inactive); in test [15] it was 93.3 µM (inactive); in test [16], > 100 µM (inactive); in test [17], > 100 µM (inactive); in test [18], > 100 µM (inactive). The GI50 in [19] and in test [20] was > 100 µM (inactive) in each case.
As to `CC1=NN(c2nc(N)nc(CSCc3nc(N)nc(N(C)C)n3)n2)C(C)(C)C1`, the GI50 in [1], in test [2], in test [3], in [4], in test [5] and in test [6] was > 100 µM (inactive) throughout. Besides, the GI50 in test [7], in test [8], in [9], in [10], in test [11] and in [12] was > 100 µM (inactive) throughout. In addition, the GI50 in [13], in test [14], in test [15], in test [16], in [17] and in [18] was > 100 µM (inactive) throughout. In addition, the GI50 in test [19] and in test [20] was > 100 µM (inactive) in each case.
On to `O=c1c2cc(Br)ccc2nc(CNc2ccccc2)n1-c1ccccc1`, for which the GI50 is 6.38 µM (inactive) in test [1]; 52.8 µM (inactive) in test [2]; 15.8 µM (inactive) in test [3]; 15.7 µM (inactive) in [4]; 21.9 µM (inactive) in test [5]; 13.4 µM (inactive) in [6]. The GI50 was 16.2 µM (inactive) in test [7]; 26.9 µM (inactive) in test [8]; 36.2 µM (inactive) in [9]; 20.7 µM (inactive) in test [10]; 3.02 µM (inactive) in test [11]; 17.4 µM (inactive) in test [12]. Besides, the GI50 is 15.6 µM (inactive) in [13]; 8.51 µM (inactive) in test [14]; 26.7 µM (inactive) in [15]; 8.97 µM (inactive) in test [16]; 12.7 µM (inactive) in test [17]; 17.4 µM (inactive) in test [18]. Besides, the GI50 in test [19] is 21.8 µM (inactive); in [20], 23.2 µM (inactive).
As to `CCCCn1c(C)c(C(=O)CC)c(C(=O)NCCN2CCN(c3ccccc3Cl)CC2)c1C`, the GI50 in test [1] is 17.6 µM (inactive); in test [2], 17.5 µM (inactive); in test [3] it was 16.7 µM (inactive); in [4] it was 19.9 µM (inactive); in test [5] it was 16.3 µM (inactive); in [6], 14.3 µM (inactive). In addition, the GI50 in test [7] was 18.1 µM (inactive); in test [8] it was 15.8 µM (inactive); in [9] it was 19.4 µM (inactive); in test [10], 16.7 µM (inactive); in [11], 16.5 µM (inactive); in test [12], 18.2 µM (inactive). Further, the GI50 in [13] is 14.1 µM (inactive); in test [14], 15.8 µM (inactive); in test [15], 19.8 µM (inactive); in test [16] it was 16.3 µM (inactive); in test [17] it was 47.1 µM (inactive); in test [18], 15.3 µM (inactive). The GI50 was 21.1 µM (inactive) in test [19] and 13.4 µM (inactive) in test [20].
As for `CCCCCCCCCCCc1noc2c1C(=O)C(O)CC2` (stereo not given), the GI50 in [1] is 16.6 µM (inactive); in test [2], 18.2 µM (inactive); in test [3], 50 µM (inactive); in test [4], 14.2 µM (inactive); in test [5], 33.5 µM (inactive); in test [6], 17.6 µM (inactive). Also, the GI50 in test [7] is 22.2 µM (inactive); in test [8] it was 22.1 µM (inactive); in [9], 25.7 µM (inactive); in test [10], 17.5 µM (inactive); in test [11] it was 32.8 µM (inactive); in [12], 38.5 µM (inactive). Besides, the GI50 in [13] is 14.6 µM (inactive); in [14], 16.4 µM (inactive); in [15] it was 22.9 µM (inactive); in [16] it was 25 µM (inactive); in test [17] it was 18 µM (inactive); in test [18], 20 µM (inactive). For the same compound, the GI50 in test [19] is 17.5 µM (inactive); in test [20], 20.5 µM (inactive).
Turning to `Cc1c[n+]2c3ccccc3c3ccccc3c2s1.[O-][Cl+3]([O-])([O-])[O-]`, the GI50 was 8.73 µM (inactive) in test [1]; 1.77 µM (inactive) in test [2]; 29.4 µM (inactive) in test [3]; 0.043 µM (active) in test [4]; 4.89 µM (inactive) in test [5]; 6.37 µM (inactive) in test [6]. Further, the GI50 in test [7] is 4.59 µM (inactive); in test [8], 3.36 µM (inactive); in test [9], 10.7 µM (inactive); in [10], 12.4 µM (inactive); in test [11] it was 3.2 µM (inactive); in test [12], 0.697 µM (active). Moreover, the GI50 in test [13] is 5.35 µM (inactive); in test [14], 14.1 µM (inactive); in test [15], 1.07 µM (active); in test [16], 8.15 µM (inactive); in test [17] it was 5.4 µM (inactive); in [18] it was 5.94 µM (inactive). In addition, the results for the GI50 in [19] and in [20] were 0.787 µM (active) and 4.26 µM (inactive), respectively.
With `O=C(OCCN=c1c2ccccc2ccc2ccccc12)c1cc([N+](=O)[O-])cc([N+](=O)[O-])c1`, the GI50 in test [1] is 36.1 µM (inactive); in test [2] it was > 100 µM (inactive); in test [3], > 100 µM (inactive); in [4] it was > 100 µM (inactive); in [5] it was > 100 µM (inactive); in test [6] it was > 100 µM (inactive). For the same compound, the GI50 in test [7], in test [8], in [9], in test [10], in test [11] and in test [12] was > 100 µM (inactive) in each case. Also, the GI50 in test [13], in test [14], in [15], in [16], in [17] and in [18] was > 100 µM (inactive) each time. Moreover, the GI50 in test [19] was 40.6 µM (inactive); in [20] it was > 100 µM (inactive).
